Experiments:
[1] = test system: RWGT2 cells (human squamous cell carcinoma of the lung); experiment: Hypercalcemia study: nude mice inoculated with RWGT2 cells; type: in vivo, BALB/c nude mice
Method: (§1) Compounds which are identified as regulating PTH-rP production were initially tested for their capacity to inhibit hypercalcemia in vivo by injecting tumor cells into nude mice and treating the mice with the potential inhibitory compounds. Specifically, compounds to be tested were injected into the subcutaneous tissue, intramuscularly, or intravenously into nude mice which were also inoculated with the human cancer cells which produce PTH-rP. The effects on the capacity of the tumor cells to cause hypercalcemia are then assessed over 2-4 weeks.
The tumor, designated RWGT2, is a human squamous cell carcinoma of the lung that was obtained from a hypercalcemic cancer patient (Guise et al, 1993). Metastatic tumor tissue was taken at the time of surgical repair of a pathologic fracture of the femur and implanted into athymic nude mice. The mice developed hypercalcemia, tumors, and increased serum PTH-rP concentrations. Tumor tissue from the mice was used to establish this cell line in culture. The cells produced PTH-rP in culture and reliably produced tumors and hypercalcemia when inoculated intramuscularly into the nude mice.
The RWGT2 cells are grown in culture in T75 flasks in α-minimal essential medium (αMEM, Hazelton Biologics Inc., Lenexa, Kans.) with 10% fetal calf serum and passaged twice a week. The mice are inoculated with RWGT2 cells by subcutaneous inoculation of 1×10^6 cells into the right flank of the upper leg.
All animal studies are conducted in accordance with the NIH Guide for the Care and Use of Laboratory Animals. Male BALB/c nude mice (Harlen), 4-6 weeks of age, are housed in a laminar flow isolator hood with a 12-hour-light/12-hour-dark cycle. Water, supplemented with multivitamins (Lymphomed, Melrose Park, Ill.) and autoclaved mouse chow (Ralston-Purina, St. Louis, Mo.) were provided ad libitum.
Weekly, the mice (each group n=5) are weighed and tumor diameters (long axis and mean axis width) are measured using calipers. Also whole blood samples for ionized calcium (Ca^2+) determination is obtained by retro-orbital puncture under anesthesia and measured using a Ciba Corning 634 ISE Ca^++/pH analyzer. Finally, blood samples for PTH-rP measurements is obtained by retro-orbital puncture and collected on ice, into pediatric vacutainer tubes containing ethylenediamine tetraacetate (EDTA) (Becton Dickinson, Rutherford, N.J.) and aprotinin (Sigma Chemical Company, St. Louis, Mo.), 400KIU/ml and stored at −70° C. Immunoreactive PTH-rP is measured using a 2 site IRMA kit available from Nichols Institute (San Juan Capistrano, Calif.).
For all experiments compound is administered when hypercalcemia is evident (treatment phase) or from the time of inoculation of RWGT2 cells (prevention phase).

[2] = test system: MDA-MB-231 cells (human breast cell carcinoma); experiment: Osteolytic bone metastases study: nude mice inoculated with MDA-MB-231 cells into the left ventricle; type: in vivo, BALB/c nude mice; conditions: 50 mg/kg/day; vs vehicle alone
Method: as §1, with “inhibit bone metastases” for “inhibit hypercalcemia”, “cause osteolytic bone lesions” for “cause hypercalcemia”
The tumor, named MDA-MB-231, is a human breast cell carcinoma. […]
Weekly, the mice are weighed and whole blood samples for ionized calcium (Ca^2+) determination are obtained by retro-orbital puncture under anesthesia and measured using a Ciba Coming 634 ISE Ca^++/pH analyzer.
The number of osteolytic bone metastases is determined on radiographs as described by Nakai (1992). […] The area of osteolytic bone metastases is calculated using a computerized image analysis system in which examination of osteolytic lesions from radiographs is achieved using a fluorescent light box (Kaiser, Germany) and Macro TV Zoom lens 18-108 mm f2,5 (Olympus, Japan) attached to a color video camera (Model DXC- 1 51 Sony, Japan). […] Quantitation of lesion area is performed using image analysis software (Java, Jandel Video Analysis, Jandel Scientific, Calif.). […]

PTH-rP promoter = experiment: PTH-rP promoter-firefly luciferase reporter assay in stably transfected MDA-MB-231 cells (Clone 30); type: cell-based, human; conditions: concentration of 3.2 μM
Method: To perform studies on the PTH-rP promoter in whole cells, a human breast cancer cell line, MDA-MB-23 1 (kindly provided by C. Kent Osborne, San Antonio Tex.) and a human lung cancer cell line, RWGT2, were employed. Various PTH-rP promoters, described in Wysolmerski et al., 1996, were linked with the reporter gene firefly luciferase and stably transfected into cell lines. Plasmid constructs included pGL3B-PTH-rP1.1 and pGL4B-PTHrP 4.0. RWGT2 cells and MDA-MB-231 cells were cultured in DMEM (Life Technologies, Grand Island, N.Y.) with 10% FCS (Hyclone, Logan, Utah), 0.1% penicillin/streptomycin and 0.1% nonessential amino acids (Gibco) in 37° C. atmosphere of 5% CO2 /air.
Before stable transfection of MDA-MB-231 cells with pGL3B-PTH-rP1.1, the concentration of geneticin (G418) required to kill MDA 231 cells was determined to be 500 μg/ml. […]
Sucloning consisted of diluting the geneticin resistant MDA-MB-2311 cells containing pGL3B-PTHrP1.1 to a concentration of 0.3 cells/100 μl. […] The luciferase activity was assessed by luminometer. […] Routinely, 20 μl of cell lysate was mixed with 100 μl of luciferase assay reagent (270 μM co-enzyme A, 470 μM luciferin and 530 μM ATP) and the luciferase activity was measured for 10 seconds in a Turner TD-20e luminometer. […] The protein concentration was assessed using BioRed reagents. […]

[3] = 50 mg/kg/day, administered from day 0 (prevention phase), vs vehicle alone

## Nc1nc2nc[nH]c2c(=S)[nH]1 [OSW6, 6-thioguanine]
[1]; 10 mg/kg/day, administered from day 0 (prevention phase), vs vehicle alone
  whole blood calcium concentrations: able to significantly lower whole blood calcium concentrations
[1]; 10 mg/kg/day, after hypercalcemia is evident (treatment phase), vs vehicle alone
  whole blood calcium concentrations: able to lower whole blood calcium concentrations
[1]; hypercalcemic mice treated (treatment phase)
  size of the tumor: reduced

## C(=NNc1nnn[nH]1)c1ccccc1 [OSW3, 5-benzylidene hydrazino-1,2,34-tetrazole]
[1]; [3]
  PTH-rP concentrations: able to lower
  whole blood calcium concentrations: able to lower whole blood calcium concentrations
[1]; 50 mg/kg/day, after hypercalcemia is evident (treatment phase), vs vehicle alone
  whole blood calcium concentrations: able to lower whole blood calcium concentrations
[2]
  lesion area of osteolytic metastases: able to significantly lower
  lesion number of osteolytic metastases: able to significantly lower

## C[n+]1c2cc(N)ccc2cc2ccc(N)cc21.[Cl-] [MS 01500618, acriflavinium hydrochloride]
PTH-rP promoter
  stimulation of the PTH-rP promoter assay: about 8 fold
